Assay results reported in ChEMBL document CHEMBL3639325, “Fused tricyclic dual inhibitors of CDK 4/6 and FLT3” (2014).

What was measured:
[1] = biological target: Cyclin-dependent kinase 4 (Homo sapiens, UniProt P11802); assay: Kinase Assay: The CDK4 and CDK1 inhibitory activity of the CDK4/6-FLT3 inhibitors was determined with a filtration kinase assay. The compounds, kinase and substrate diluted in the kinase buffer (20 mM Tris, pH7.4, 50 mM NaCl, 1 mM DTT, 0.1% BSA) were sequentially added to a 96-well Multiscreen HTS filtration plate (Millipore). The final 100 μL reaction mixture in each well contained 0.3 μg of CDK4/Cyclin D1 or CDK1/Cyclin B (Cell Signaling Technology), 1 μg of Rb fragment (aa773-928, Millipore) for the CDK4 assay or 5 μg of histone H1 for the CDK1 assay and 1 μCi of [33P]-ATP. The mixture was incubated at room temperature for 1 hour. The proteins in the reaction were then precipitated and washed with cold TCA solution using an aspiration/filtration vacuum system. The plates were dried at room temperature, and the retained radioactivity was measured by scintillation counting.
Sequence of Cyclin-dependent kinase 4 (P11802 whole entry, the tested form may be a part): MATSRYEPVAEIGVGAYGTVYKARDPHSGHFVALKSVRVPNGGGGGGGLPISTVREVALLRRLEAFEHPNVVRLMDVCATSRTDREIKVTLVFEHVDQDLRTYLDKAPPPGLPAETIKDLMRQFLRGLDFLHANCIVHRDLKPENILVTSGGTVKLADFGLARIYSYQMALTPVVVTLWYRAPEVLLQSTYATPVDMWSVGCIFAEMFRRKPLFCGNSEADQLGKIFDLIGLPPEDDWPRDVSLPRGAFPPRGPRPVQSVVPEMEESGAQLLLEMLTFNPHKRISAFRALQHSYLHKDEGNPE

[2] = biological target: T1, Receptor-type tyrosine-protein kinase FLT3 (Homo sapiens, UniProt P36888); assay: Kinase Assay: The FLT3 inhibitory activity of the CDK4/6-FLT3 inhibitors was determined with a HTRF kinase assay. The FLT3 enzyme (GST-FLT3 fusion) was purchased from Carna Biosciences. An ULight-labeled synthetic peptide derived from human Janus kinase 1 (aa1015-1027, ULight-JAK1, PerkinElmer) was utilized as the phosphoacceptor substrate. The assay was conducted in a 384-well white OptiPlate (PerkinElmer). The 20 μL reaction mixture contained 50 nM ULight-JAK1, 116 μM ATP, 0.0385 ng/μL FLT3 and dilutions of test compounds in the kinase buffer (50 mM Hepes, pH 7.6, 1 mM EGTA, 10 mM MgCl2, 2 mM DTT, and 0.005% Tween 20). The reaction was allowed to proceed for 1 hour at room temperature and was stopped by adding 20 μL of 10 mM EDTA, 2 nM LANCE Eu-W1024 anti-phospho-tyrosine antibody in LANCE detection buffer (PerkinElmer). The plates were incubated at room temperature for 2 hours after addition of detection reagents and then read on an Envision multimode reader (PerkinElmer).
T1 sequence (P36888 whole entry): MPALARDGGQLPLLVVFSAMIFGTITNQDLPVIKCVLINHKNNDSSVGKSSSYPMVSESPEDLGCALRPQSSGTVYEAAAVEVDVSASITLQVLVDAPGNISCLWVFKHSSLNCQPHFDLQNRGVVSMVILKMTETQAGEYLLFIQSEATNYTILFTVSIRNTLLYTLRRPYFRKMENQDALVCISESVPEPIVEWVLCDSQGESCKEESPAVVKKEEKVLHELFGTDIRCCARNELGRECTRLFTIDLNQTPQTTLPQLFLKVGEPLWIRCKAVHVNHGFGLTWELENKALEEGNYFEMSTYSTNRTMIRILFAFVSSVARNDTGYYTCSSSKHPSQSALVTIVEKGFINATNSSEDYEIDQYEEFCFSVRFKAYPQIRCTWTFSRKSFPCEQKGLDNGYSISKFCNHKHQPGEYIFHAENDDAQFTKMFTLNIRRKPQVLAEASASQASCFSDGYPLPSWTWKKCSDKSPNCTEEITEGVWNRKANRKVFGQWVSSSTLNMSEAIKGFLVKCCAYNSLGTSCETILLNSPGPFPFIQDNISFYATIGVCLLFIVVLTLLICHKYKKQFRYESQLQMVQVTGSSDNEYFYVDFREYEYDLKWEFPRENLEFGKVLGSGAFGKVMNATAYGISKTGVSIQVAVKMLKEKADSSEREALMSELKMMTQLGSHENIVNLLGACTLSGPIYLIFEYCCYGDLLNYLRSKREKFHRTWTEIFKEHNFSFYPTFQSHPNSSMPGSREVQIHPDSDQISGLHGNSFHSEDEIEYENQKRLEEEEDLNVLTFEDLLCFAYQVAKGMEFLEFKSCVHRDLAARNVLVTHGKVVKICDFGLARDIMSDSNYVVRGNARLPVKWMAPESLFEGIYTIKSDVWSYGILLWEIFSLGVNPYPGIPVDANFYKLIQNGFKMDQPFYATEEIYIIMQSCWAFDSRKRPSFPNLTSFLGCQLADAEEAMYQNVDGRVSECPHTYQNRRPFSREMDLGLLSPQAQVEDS

SMILES: C[C@H]1CC[C@H](n2c3cnccc3c3cnc(Nc4ccc5c(n4)C(O)CN(CCO)C5)nc32)CC1 (some centres not stated)
- IC50 [1]: 19.2 nM
- IC50 [2]: 2.9 nM
